In general, melting point refers to the temperature, or range, at which the solid turns liquid.

Consider two compounds from publication PMC8841740, “Fluorescent Ligand-Based Discovery of Small-Molecule Sulfonamide Agonists for GPR120” (Frontiers in Chemistry, 2022).

The test system of series [1] is db/db mice. As to the kind of experiment: Glucose tolerance test in db/db mice. It counts as in vivo. As to the method:
On the last day of the dosing cycle, the fasting blood glucose of mice was measured (without food and water for 6 h), and glucose solution (100 mg/kg) was injected. The blood glucose was measured at […] (5, 10, 30, 60, and 120 min). Finally, the area under the curve was analyzed with SPSS 24 software.

Series [2] concerns the target T1, GPR120 (Homo sapiens, UniProt Q5NUL3).
T1 sequence (Q5NUL3 1-361): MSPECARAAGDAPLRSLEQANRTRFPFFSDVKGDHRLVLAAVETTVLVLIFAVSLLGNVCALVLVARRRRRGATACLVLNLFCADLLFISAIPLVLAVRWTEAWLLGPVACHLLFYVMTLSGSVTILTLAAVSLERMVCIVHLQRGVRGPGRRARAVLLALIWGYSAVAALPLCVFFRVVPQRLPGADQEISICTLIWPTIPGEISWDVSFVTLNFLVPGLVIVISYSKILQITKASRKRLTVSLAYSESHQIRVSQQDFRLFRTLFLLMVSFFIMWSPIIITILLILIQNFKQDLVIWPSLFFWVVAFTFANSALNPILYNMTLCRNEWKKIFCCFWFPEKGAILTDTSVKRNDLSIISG
Briefly: BRET activity test (β-arrestin-2 recruitment, GPR120-YFP / β-arrestin-2-Rluc in HEK293 cells). It counts as cell-based. On the set-up: host or cells: HEK293 (transfected with both plasmids). As to the method:
GPR120-YFP and β-arresting-2-Rluc plasmids were transfected into HEK293 cells. After a 24-h incubation, the cells were seeded in a black 96-well plate (100 μl, 20,000 cells per well). Followed by a 24-h incubation, the solution was removed from the plate, and compounds with different concentrations (100 μl per well) and coelenterazine (10 μM, 100 μl per well) were added, followed by the fluorescence intensity was measured at 460 and 520 nm with the microplate reader ([Christiansen et al., 2016]; [Hill et al., 2018]).
In general terms: BRET reads energy transfer from a luciferase to a nearby fluorophore.

The test system of series [3] is GPR120. Briefly: Bias of agonists (Gq versus β-arrestin2 pathway). Format: cell-based. To be noted: reference GSK137647A pathways P1 Gq, P2 β-arrestin2. The text has this: The bias was quantified by Eq. 1, in which β is the bias factor, Emax is the maximum effect produced by the agonist, and Pl and P2 represents the Gq and β-arrestin2 signal pathway, respectively.
Formula 1: β=log((Emax,P1/EC50,P1EC50,P2/Emax,P2)lig×(Emax,P2/EC50,P2EC50,P1/Emax,P1)ref) (1)

The nature of series [4]: Weight changes of db/db mice during four weeks of administration. It counts as in vivo. How it is done:
(§1) All animal studies were approved by the Ethics Committee and IACUC of Cheeloo College of Medicine, Shandong University, and were conducted in compliance with European Guidelines for the Care and Use of Laboratory Animals. After adaptive feeding for 10–15 days, the db/db mice were divided into positive control group (30 mg/kg), low content compound group (10 mg/kg), high content compound group (30 mg/kg), and negative control group (the same volume dosing solvent). These mice were administrated by gavage once a day (administration volume, 20 ml/kg) for four consecutive weeks. During the administration period, the fasting blood glucose (without food and water for 6 h) was measured twice a week by using a blood glucose meter. The blood glucose level was measured for four consecutive weeks. The data was processed with Graphpad 8.2 software ([Cox et al., 2017]; [Zhang et al., 2017]).

Series [5] concerns the target T1, GPR120. As to the kind of experiment: Fluorescence imaging in HEK293 cells (stably transfected with GPR120) and PC-3 cells. It counts as cell-based. On the set-up: expressed in transfected cells. To be noted: N1 0.5 μM and D5 10 μM, HEK293 cells stably transfected with GPR120. As to the method:
HEK293 and PC-3 cells were seeded in fluorescent confocal dishes (5 × 10^3 per well). After the cells were iron-walled, the medium was removed from the dishes, the cells were washed once with a serum-free medium, and the probe was added. After incubating the cells for 10 min, the confocal dishes were observed by an inverted fluorescence microscope.

Series [6] has as its target T1, GPR120. As to the kind of experiment: Preliminary screening of agonists by BRET competition with probe N1. Format: binding. The arrangement: expressed in transfected cells. Particulars: 10 μM compound, probe N1 400 nM. How it is done: HEK293 cells stably transfected with the GPR120-Rluc gene were seeded in a black 96-well plate (100 μl, 2 × 10^4 cells per well). After a 24-h incubation, the medium was removed, probe N1 (400 nM, 50 μl per well) was added, and 10 μM of the compound was added after a 30-min incubation as well. Followed by a 40-min incubation, coelenterazine (final concentration: 10 μM, 50 μl per well) was added to the plate. Afterward, the fluorescence intensity was measured at 450 and 550 nm with the microplate reader after another 10-min incubation.

Series [7] concerns db/db mice. As to the kind of experiment: Fasting blood glucose in db/db mice after 4 weeks of administration. Format: in vivo. Particulars: gavage once a day. How it is done:
as §1

The target of series [8] is T1, GPR120. Briefly: GPR120 Ca2+ flow assay in HEK293 cells stably transfecting the GPR120-Rluc gene. The arrangement: expressed in transfected cells. Format: cell-based. How it is done:
Ca^2+ flow activity was determined in HEK293 cells stably transfecting the GPR120-Rluc gene. After incubating the cells for 24 h, the medium was removed from the plate, and the cells were washed with HBSS buffer (without Ca^2+ and Mg^2+). Subsequently, a 2-μM Fluo-4 AM working solution in HBSS buffer (without Ca^2+ and Mg^2+) was added to the plate (40 μl per well).

The target of series [9] is T2, GPR40 (Homo sapiens, UniProt O14842).
T2 construct: expressed in transfected cells; host or cells: CHO (transient)
As to the kind of experiment: GPR40 Ca2+ flow assay in CHO cells with transient GPR40 gene. To be noted: CHO cells, GPR40; read-out: FFA1 (Ca2+ pEC50) (converted). Format: cell-based. As to the method: Ca^2+ flow activity was determined in HEK293 cells stably transfecting the GPR120-Rluc gene. After incubating the cells for 24 h, the medium was removed from the plate, and the cells were washed with HBSS buffer (without Ca^2+ and Mg^2+). Subsequently, a 2-μM Fluo-4 AM working solution in HBSS buffer (without Ca^2+ and Mg^2+) was added to the plate (40 μl per well). After incubating the cells for 20 min at 37°C, compound solution at different concentrations in HBSS buffer (per well 160 μl) was added. Followed by a 40-min incubation, the solution was removed from the plate, HEPES buffer (200 μl per well) was added, and the fluorescence intensity was detected using the microplate reader (Ex: 488 nm; Em: 520 nm) ([Watterson et al., 2017]).
Ca^2+ flow activity was determined in CHO cells with transient GPR40 gene by the same method as well, in which the GPR40 agonist TAK875 was used as a positive control.

Series [10] concerns FFA4. On the set-up: method as in Sparks et al., 2014. To be noted: in Figure 3; ref Sparks et al., 2014; cited from earlier work.
Series [11] deals with T1, GPR120. Briefly: BRET competitive binding experiment with probe N1. The arrangement: expressed in transfected cells. To be noted: probe N1 400 nM, read-out: pKi (N1) (converted). How it is done: HEK293 cells stably transfected with the GPR120-Rluc gene were seeded in a black 96-well plate (100 μl, 2 × 10^4 cells per well). After the cells were incubated for 24 h, the medium was removed, and probe N1 (400 nM, 50 μl per well) was added. […] Followed by a 40-min incubation, coelenterazine was added to (final concentration: 10 μM, 50 μl per well) the plates. Thenceforward, the fluorescence intensity was measured at 450 and 550 nm with the microplate reader after a 10-min incubation.

Series [12] has as its system FFA1. On the set-up: method as in Sparks et al., 2014. Particulars: in Figure 3; ref Sparks et al., 2014; cited from earlier work.
For series [13], the system named is GPR120. Particulars: cited from earlier work.

A value given as a limit tells only on which side of the number the result lay.

`O=S(=O)(Nc1ccc(F)cc1)c1ccc(-c2ccc(OC(F)(F)F)cc2)cc1` [Compound D5, N-(4-Fluorophenyl)-4′-(Trifluoromethoxy)-[1,1′-Biphenyl]-4-Sulfonamide] returned a melting point of 148 to 149 °C. Also, in series [1] (10 mg/kg), the “reduction of blood glucose AUC0–120 min” value was found to be 15.3%. The “reduction of blood glucose AUC0–120 min” value in series [1] (30 mg/kg) was determined as 30.3%. Also, in series [2] (GSK137647A used as a standard), the “Emax (FFA4 β-arrestin2)” value is on record as 1.12. The EC50 in [2] (Table 3, read-out: FFA4 (β-arrestin2 pEC50) (converted)) is 34.7 nM. The “bias (bias factor, Gq vs β-arrestin2)” value in series [3] was “relatively biased towards the Gq pathway”. Further, in series [4] (10 mg/kg), the weight change entry is listed as “reached a stable level in the fourth week”. Further, the weight change entry in series [4] (30 mg/kg) is “decreased in the fourth week”. In addition, the “fluorescence intensity of N1 after co-incubation (competitive cell imaging)” value in series [5] is listed as “decreased significantly”. Moreover, the “inhibition rate in BRET screening compared with GSK137647A” value in series [6] is reported as “higher than GSK137647A”. Besides, the “fasting blood glucose-lowering level compared with GSK137647A” value in series [7] (10 mg/kg) was “the same blood glucose-lowering level”. Further, the “fasting blood glucose-lowering level compared with GSK137647A” value in series [7] (30 mg/kg) is given as “a higher blood-glucose-lowering level”. Besides, the “Emax (FFA4 Ca2+)” value in series [8] (GSK137647A used as a standard) is recorded as 1.22. Further, the EC50 in series [8] (Table 3, read-out: FFA4 (Ca2+ pEC50) (converted)) is 5.37 nM. The EC50 in series [9] is greater than 50.1 µM.

As for `COc1ccc(S(=O)(=O)Nc2c(C)cc(C)cc2C)cc1` [GSK137647A, reference compound], the “FFA4 Human pEC50” value in series [10] is reported as 6.3(0.17). Moreover, the “reduction of blood glucose AUC0–120 min” value in series [1] (30 mg/kg) was 19.3%. Besides, the EC50 was 178 nM in series [2] (GPR120, β-arrestin-2 activity test, read-out: pEC50 BRET (converted)) and 44.7 nM in series [8] (GPR120, Ca2+ flow, HEK293 GPR120-Rluc cells, read-out: pEC50 Ca2+ assay (converted)). Besides, the Ki in [11] is 110 nM. In series [12], the “FFA1 Human pEC50” value is given as less than 4.5. Also, the “pEC50 (Literature)” value in series [13] was 6.30 ± 0.2^16. The “pEC50 (Ca2+ assay)” value in [8] (GPR120, Table 2) amounted to 7.35 ± 0.59.
